Data: ChEMBL document CHEMBL5724558, “Image-based profiling of drug vulnerabilities in CRC organoids” (2024)
Several values for one entry are separate records, joined by “and”; a condition that tells them apart may be missing. Equal entries are not always repeated.

Key:
Assay type in all cases: functional, Homo sapiens
Parameters in all cases: dose or concentration left out as unconfirmed
[1] = system: Colon cancer organoid; experiment: Image-based profiling of donated chemical probes and chemogenomic kinase set in O06 CRC organoid. Image analysis is performed on the sum area metric, and the data were normalized to the DMSO control. After imaging the organoid viability is measured using the OneGloEX Luciferase Assay System. The normalized viability data and sum area are reported.
[2] = system: Colon cancer organoid; experiment: Image-based profiling of donated chemical probes and chemogenomic kinase set in O09 CRC organoid. Image analysis is performed on the sum area metric, and the data were normalized to the DMSO control. After imaging the organoid viability is measured using the OneGloEX Luciferase Assay System. The normalized viability data and sum area are reported.
[3] = system: Colon cancer organoid; experiment: Image-based profiling of donated chemical probes and chemogenomic kinase set in O21 CRC organoid. Image analysis is performed on the sum area metric, and the data were normalized to the DMSO control. After imaging the organoid viability is measured using the OneGloEX Luciferase Assay System. The normalized viability data and sum area are reported.

| Compound | Cell Viability ([1]; Replication number 1) | Cell Viability ([1]; Replication number 2) | Cell Viability ([2]; Replication number 1) | Cell Viability ([2]; Replication number 2) | Cell Viability ([3]; Replication number 1) | Cell Viability ([3]; Replication number 2) |
| --- | --- | --- | --- | --- | --- | --- |
| C[C@@H](NC(=O)Nc1cc2[nH]ncc2c(CO)n1)c1ccccc1 [ERKi] | 27.1255% and 47.7752% | 41.1023% and 64.199% | 38.3769% and 59.9681% | 20.7917% and 30.6681% | 47.444% and 52.6843% | 54.1158% and 53.5714% |
| Cc1cn(-c2cc(NC(=O)c3ccc4c(c3)CN(c3cncnc3)C[C@@H]4C)cc(C(F)(F)F)c2)cn1 | 59.0694% and 78.9076% | 95.3584% and 115.454% | 138.868% and 108.886% | 120.836% and 109.134% | 90.5152% and 91.8083% | 113.206% and 94.0752% |
| COCC(=O)NC/C=C/c1ccc2ncnc(Nc3ccc(Oc4ccc(C)nc4)c(C)c3)c2c1 [CP-724714] | 34.9461% and 62.9851% | 41.6567% and 67.0437% | 68.0715% and 78.0427% | 150.035% and 112.57% | 88.8144% and 89.7561% | 117.053% and 106.513% |
| CN1C[C@H](Nc2cnn(C)c(=O)c2Br)C[C@H](c2ccccc2)C1 | 155.67% and 115.973% | 127.596% and 115.428% | 140.201% and 85.3168% | 101.083% and 86.6646% | 130.754% and 116.395% | 102.417% and 96.6587% |
| Nc1ncnc2c1ccn2[C@@H]1O[C@H]([C@H](O)c2ccccc2)[C@@H](O)[C@H]1O | 27.0632% and 78.2819% | – | 67.0274% and 58.6553% | 77.7398% and 60.4371% | 74.1764% and 78.772% | 70.798% and 78.401% |
| COc1cc(OC)cc(-c2noc(N3CCN(C)C4(CCN(c5ccccc5)CC4)C3)n2)c1 | 202.541% and 143.275% | 168.695% and 116.861% | 101.833% and 98.7635% | 122.499% and 95.7871% | 113.13% and 104.05% | 103.365% and 96.1217% |
| CN(C(=O)c1cnn2cccnc12)c1cc2c(cc1N1CCOCC1)C(=O)N(C[C@@H](F)C(C)(C)O)C2 | 66.1312% and 81.8624% | 88.8257% and 96.1076% | 67.6561% and 89.4711% | 97.2316% and 93.7748% | 91.4071% and 91.6697% | 87.4763% and 99.932% |
| Cc1nc(C2CCN(C(=O)c3ccc(OC(F)(F)F)cc3N)CC2)c2ncc(N3CCN(C)CC3)cc2n1 [BAY-693] | 107.628% and 117.814% | 129.663% and 123.258% | 87.1033% and 97.7241% | 88.4972% and 107.653% | 120.305% and 115.678% | 95.3265% and 86.6757% |
| CCOCCn1cc(C(=O)Nc2ccc(-n3nc(-c4cccnc4)cc3C(F)(F)F)cn2)ccc1=O [BI 1935] | 106.067% and 119.906% | 111.838% and 96.8907% | 99.959% and 99.8673% | 61.8115% and 83.5341% | 115.071% and 97.8008% | 110.735% and 98.9796% |
| O=C1[C@H](Cc2ccc(O)cc2)N2C(=O)CCN(C(=O)NCc3ccccc3)[C@H]2CN1Cc1cccc2ccccc12 | 96.6982% and 93.2617% | 106.282% and 104.195% | 80.9835% and 70.711% | 121.345% and 94.0767% | 89.9628% and 92.2926% | 85.8858% and 90.2148% |
| CN1CCN(c2ccc(-c3cccc(CN4CCOCC4)c3)cc2NC(=O)c2c[nH]c(=O)cc2C(F)(F)F)CC1 | 183.315% and 145.933% | 137.387% and 99.6548% | 103.563% and 97.1406% | 155.063% and 99.7783% | 76.0385% and 85.8263% | 102.756% and 104.714% |
| CC1(C)C(N)=Nc2cc(OCCCN3Cc4ccc(OCCc5cn(CC(=O)N6CCC(CCN7CCCC7)CC6)nn5)cc4C3)c(OCC3CC3)cc21 | 159.496% and 131.919% | 138.652% and 115.905% | 116.392% and 79.0572% | 168.88% and 116.313% | 89.3796% and 92.2926% | 86.2982% and 98.2697% |
| Cn1cc(-c2ccc3occ(-c4cccc(-c5ccncc5)c4)c3n2)cn1 | 105.822% and 114.901% | 68.0406% and 107.425% | 82.6672% and 85.8718% | 87.0318% and 75.2306% | 96.3699% and 105.976% | 129.888% and 115.611% |
| CN(C)C(=O)/C(C#N)=C/c1ccc(-c2nc3cnc4c(ccn4C)c3n2C2CCCCC2)o1 | 94.8079% and 114.901% | 118.022% and 96.0735% | 117.89% and 123.735% | 132.247% and 113.588% | 100.887% and 101.443% | 86.9771% and 102.576% |
| CCCS(=O)(=O)c1cc(NC2CC2)nc(-c2ccc3c(ccn3C3CC(C)(C)NC(C)(C)C3)c2)n1 | 40.3908% and 48.3221% | 87.7215% and 108.975% | 103.467% and 88.0989% | 115.748% and 108.331% | 82.8925% and 103.462% | 85.2127% and 87.5298% |
| COc1cc(N2CCC(O)CC2)ccc1Nc1cc(Nc2ccccc2S(=O)(=O)C(C)C)c2cc[nH]c2n1 | 110.737% and 120.851% | 95.8479% and 104.062% | 95.9238% and 77.0453% | 69.9407% and 56.4198% | 85.5887% and 104.808% | 115.828% and 93.8467% |
| CS(=O)(=O)N1CCN(Cc2cc3nc(-c4cccc5[nH]ncc45)nc(N4CCOCC4)c3s2)CC1 [PICTILISIB] | 32.227% and 73.4455% | 23.961% and 57.7892% | 49.7053% and 32.4139% | 55.1776% and 34.8237% | 58.3035% and 68.0139% | 64.7873% and 89.8165% |
| CN(C)[C@H]1CCN(c2cc(-c3ccccc3)nc3ccnn23)C1 [(S)-ZINC-3573] | 125.32% and 118.543% | 115.524% and 96.3479% | 74.4521% and 108.791% | 105.794% and 104.481% | 105.743% and 100.4% | 101.814% and 109.109% |
| O=C(Nc1ccc(-c2ccnc(Nc3ccc(N4CCOCC4)cc3)n2)cc1)[C@@H]1CCCN1 | 113.887% and 133.092% | 82.4971% and 82.4679% | 74.06% and 64.3291% | 67.524% and 79.6356% | 122.386% and 130.453% | 118.022% and 143.361% |
| NS(=O)(=O)c1cc(NC(=O)C2(c3ccccc3Cl)CC2)ccc1Oc1cccc(Cl)c1 [BAY-207] | 85.045% and 103.044% | 47.3713% and 82.6769% | 172.466% and 128.537% | 110.661% and 134.648% | 111.619% and 128.655% | 96.7656% and 94.898% |
| CNc1nc(Nc2cnn([C@H]3CCN(C4COC4)C[C@@H]3F)c2Cl)ncc1C(F)(F)F | 126.64% and 127.973% | 90.3478% and 106.324% | 95.686% and 93.751% | 102.903% and 81.5252% | 107.524% and 121.533% | 104.61% and 94.4225% |
